Results as given in patent publication US20200016231A1, “BIOFILM DISRUPTING COMPOSITION” (Whiteley Corporation Pty Ltd, priority 2016, published 2020).
Like-named read-outs stand apart in the source and are kept apart here.

How the values were obtained:
[1] = test system: Klebsiella pneumoniae; test: Biofilm viability, resazurin assay, Klebsiella pneumoniae clinical isolates; assay type: cell-based; details: read-out: % bacterial viability; for viability at 10000 µM: GSH 10 mM; for viability at 15000 µM: GSH 15 mM; for viability at 30000 µM: GSH 30 mM
Experimental: (§1) Bacterial isolates were grown in Tryptone Soya Broth (TSB) medium for 24 hours at 37° C., in a shaking incubator set at 150 rpm. After this time the organisms were harvested by centrifugation (5000×g, 5 min at 10° C.). After centrifugation, the supernatant liquid was removed and the bacterial pellet was suspended in 1×Phosphate Buffered Saline (PBS). To initiate biofilm growth, the bacterial suspension from PBS was immediately re-suspended in TSB and 250 μL of bacterial cell suspension (OD600=0.5±0.05) were added into the wells of 96-well plates (Corning Corp. USA) and incubated at 37° C. for 48 h at 150 r.p.m.
(§2) After 24 h, treated biofilms supernatant were replaced with 200 μL of 1×PBS, followed by addition of 15 μL of a 0.05% w/v solution of resazurin (Sigma-Aldrich), and incubated further at 37° C., 150 r.p.m.
(§3) After a further 24 h, the fluorescent intensity of the biofilm was determined at Ex544 nm and Em590 nm (Tecan infinite M1000 pro microplate reader). Results are plotted as percentage (%) of bacterial vaiability calculated based on fluorescent intensity. Control or untreated bacterial biofilm fluorescent intensity always considered as 100% bacterial viability and % viability under rest of treatment conditions were calculated with reference to control.
(§4) It should be noted that the Resazurin assay works by recording fluorescence intensity and depends upon two factors (total number of bacteria and total number of viable bacteria in a given biofilm sample).
The treatments shown in column 1 of table 7 were tested against three clinical isolates of Klebsiella pneumoniae.

[2] = test system: biofilms; details: GSH at 30 milli Molar; also non-Pseudomonad organisms (FIGS. 1-13)
Experimental: as §1, with “r.p.m. […]” for “r.p.m.”
as §3, §4

[3] = test system: Staphylococcus agalactiae; test: organism not typed; assay type: cell-based, Streptococcus agalactiae; details: for viability at 10000 µM: GSH 10 mM; for viability at 15000 µM: GSH 15 mM; for viability at 30000 µM: GSH 30 mM
Experimental: The treatments shown in column 1 of Table 5 were tested against four strains of […] agalactiae, (veterinary strains ex Cow mastitis). […] The treatments shown in column 1 of Table 13 were tested against four strains of […] agalactiae, (veterinary strains ex Cow mastitis).

[4] = test system: Pseudomonas aeruginosa; test: Biofilm viability, resazurin assay, Pseudomonas aeruginosa clinical isolates; assay type: cell-based; details: read-out: % bacterial viability; for viability at 10000 µM: GSH 10 mM; for viability at 15000 µM: GSH 15 mM; for viability at 30000 µM: GSH 30 mM
[5] = test system: Escherichia coli; test: Biofilm viability, resazurin assay, Escherichia coli clinical isolates; assay type: cell-based; details: read-out: % bacterial viability; for viability at 10000 µM: GSH 10 mM; for viability at 15000 µM: GSH 15 mM; for viability at 30000 µM: GSH 30 mM
Experimental: as §1, §2, §3, §4
The treatments shown in column 1 of Table 9 were tested against three clinical isolates of Enterobacter species.

[6] = test system: methicillin-sensitive Staphylococcus aureus; test: microbe, parasite or virus in culture; assay type: cell-based; details: MSSA
Experimental: The treatments shown in column 1 of Table 4 were tested against three strains of methicillin-sensitive Staphylococcus aureus. […] The treatments shown in column 1 of Table 12 were tested against three strains of methicillin-sensitive Staphylococcus aureus.

[7] = test system: methicillin-resistant Staphylococcus aureus; test: microbe, parasite or virus in culture; details: MRSA
[8] = test system: Multidrug resistant Acinetobacter Baumannii, (MRAB); test: microbe, parasite or virus in culture
[9] = test system: E aerogenes; test: Biofilm viability, resazurin assay, Enterobacter species: E aerogenes; assay type: cell-based; details: E aerogenes 359475 Sternum, read-out: % bacterial viability
Experimental: as §1, §2, §3, §4
(§5) The treatments shown in column 1 of Table 8 were tested against three clinical isolates of Enterobacter species.

[10] = test system: E. cloacae; test: Biofilm viability, resazurin assay, Enterobacter species: E. cloacae; assay type: cell-based; details: read-out: % bacterial viability; for viability at 10000 µM: GSH 10 mM; for viability at 15000 µM: GSH 15 mM; for viability at 30000 µM: GSH 30 mM
Experimental: as §1, §2, §3, §4, §5

[11] = read-out: % bacterial viability, S. agalactiae # 30
[12] = read-out: % bacterial viability, S. agalactiae # 44
[13] = read-out: % bacterial viability, S. agalactiae # 70
[14] = read-out: % bacterial viability, S. agalactiae # 88
[15] = read-out: % bacterial viability, S. agalactiae # 106
[16] = E. cloacae 359315 Left foot wound

## N[C@@H](CCC(=O)N[C@@H](CS)C(=O)NCC(=O)O)C(=O)O [GSH, glutathione]
[1]; 374450 Catheter urine
  viability at 10000 µM: 86%
  viability at 15000 µM: 72.8%
  viability at 30000 µM: 16.8%
[1]; 377951 Left hip wound
  viability at 10000 µM: 81.6%
  viability at 15000 µM: 70.8%
  viability at 30000 µM: 9.13%
[1]; 385261 Neck wound
  viability at 10000 µM: 78.8%
  viability at 15000 µM: 62.5%
  viability at 30000 µM: 14.1%
[2]
  killing/disrupting biofilms compared with antibiotics: significantly higher effect than antibiotics
[3]; [11]
  viability at 10000 µM: 104%
  viability at 15000 µM: 80.7%
  viability at 30000 µM: 35.3%
[3]; [12]
  viability at 10000 µM: 87%
  viability at 15000 µM: 73.9%
  viability at 30000 µM: 29.2%
[3]; [13]
  viability at 10000 µM: 89.2%
  viability at 15000 µM: 79.4%
  viability at 30000 µM: 38.3%
[3]; [14]
  viability at 10000 µM: 88%
  viability at 15000 µM: 81.6%
  viability at 30000 µM: 25%
[3]; [15]
  viability at 10000 µM: 103%
  viability at 15000 µM: 83.2%
  viability at 30000 µM: 29.2%
[4]; 364077 Scalp wound
  viability at 10000 µM: 95.6%
  viability at 15000 µM: 93%
  viability at 30000 µM: 30.3%
[4]; 365707 Left ankle wound
  viability at 10000 µM: 104%
  viability at 15000 µM: 101%
  viability at 30000 µM: 11.2%
[4]; PA0053 DFU
  viability at 10000 µM: 89.8%
  viability at 15000 µM: 74.5%
  viability at 30000 µM: 7.3%
[5]; 362805 Exit
  viability at 10000 µM: 75.7%
  viability at 15000 µM: 71.8%
  viability at 30000 µM: 0.7%
[5]; 365714 Wound
  viability at 10000 µM: 108%
  viability at 15000 µM: 93.4%
  viability at 30000 µM: 12.3%
[5]; 366290 Drain fluid
  viability at 10000 µM: 69.8%
  viability at 15000 µM: 68.7%
  viability at 30000 µM: 3.9%
[6]; read-out: % bacterial viability, MSSA - 0800 DFU, GSH 10 mM
  viability at 10000 µM: 82.4%
[6]; read-out: % bacterial viability, MSSA - 0800 DFU, GSH 15 mM
  viability at 15000 µM: 61.7%
[6]; read-out: % bacterial viability, MSSA - 0800 DFU, GSH 30 mM
  viability at 30000 µM: 20.1%
[6]; read-out: % bacterial viability, MSSA - 34397 Left elbow, GSH 10 mM
  viability at 10000 µM: 88.7%
[6]; read-out: % bacterial viability, MSSA - 34397 Left elbow, GSH 15 mM
  viability at 15000 µM: 61.3%
[6]; read-out: % bacterial viability, MSSA - 34397 Left elbow, GSH 30 mM
  viability at 30000 µM: 1.06%
[6]; read-out: % bacterial viability, MSSA - 34654 Right toe, GSH 10 mM
  viability at 10000 µM: 86.1%
[6]; read-out: % bacterial viability, MSSA - 34654 Right toe, GSH 15 mM
  viability at 15000 µM: 70.5%
[6]; read-out: % bacterial viability, MSSA - 34654 Right toe, GSH 30 mM
  viability at 30000 µM: 15.3%
[7]; read-out: % bacterial viability, MRSA 27060 Left leg, GSH 10 mM
  viability at 10000 µM: 88.8%
[7]; read-out: % bacterial viability, MRSA 27060 Left leg, GSH 15 mM
  viability at 15000 µM: 65.2%
[7]; read-out: % bacterial viability, MRSA 27060 Left leg, GSH 30 mM
  viability at 30000 µM: 1.02%
[7]; read-out: % bacterial viability, MRSA 30616 Chin vesicle, GSH 10 mM
  viability at 10000 µM: 73.1%
[7]; read-out: % bacterial viability, MRSA 30616 Chin vesicle, GSH 15 mM
  viability at 15000 µM: 58.8%
[7]; read-out: % bacterial viability, MRSA 30616 Chin vesicle, GSH 30 mM
  viability at 30000 µM: 4.54%
[7]; read-out: % bacterial viability, MRSA - 0799 DFU, GSH 10 mM
  viability at 10000 µM: 86.7%
[7]; read-out: % bacterial viability, MRSA - 0799 DFU, GSH 15 mM
  viability at 15000 µM: 75%
[7]; read-out: % bacterial viability, MRSA - 0799 DFU, GSH 30 mM
  viability at 30000 µM: 33.1%
[8]; read-out: % bacterial viability, MRAB 1 014754 Urine, GSH 10 mM
  viability at 10000 µM: 73.6%
[8]; read-out: % bacterial viability, MRAB 1 014754 Urine, GSH 15 mM
  viability at 15000 µM: 55.6%
[8]; read-out: % bacterial viability, MRAB 1 014754 Urine, GSH 30 mM
  viability at 30000 µM: 20.4%
[8]; read-out: % bacterial viability, MRAB 2 014801 Catheter, GSH 10 mM
  viability at 10000 µM: 70.8%
[8]; read-out: % bacterial viability, MRAB 2 014801 Catheter, GSH 15 mM
  viability at 15000 µM: 41.2%
[8]; read-out: % bacterial viability, MRAB 2 014801 Catheter, GSH 30 mM
  viability at 30000 µM: 2.45%
[8]; read-out: % bacterial viability, MRAB 3 015069 Skin, GSH 10 mM
  viability at 10000 µM: 84.6%
[8]; read-out: % bacterial viability, MRAB 3 015069 Skin, GSH 15 mM
  viability at 15000 µM: 63.2%
[8]; read-out: % bacterial viability, MRAB 3 015069 Skin, GSH 30 mM
  viability at 30000 µM: 37.7%
[8]; read-out: % bacterial viability, MRAB 4 015095 Hospital Environ, GSH 10 mM
  viability at 10000 µM: 68%
[8]; read-out: % bacterial viability, MRAB 4 015095 Hospital Environ, GSH 15 mM
  viability at 15000 µM: 57.7%
[8]; read-out: % bacterial viability, MRAB 4 015095 Hospital Environ, GSH 30 mM
  viability at 30000 µM: 13.8%
[8]; read-out: % bacterial viability, MRAB 5 015103 Hospital Environ, GSH 10 mM
  viability at 10000 µM: 65.1%
[8]; read-out: % bacterial viability, MRAB 5 015103 Hospital Environ, GSH 15 mM
  viability at 15000 µM: 51.5%
[8]; read-out: % bacterial viability, MRAB 5 015103 Hospital Environ, GSH 30 mM
  viability at 30000 µM: 16.7%
[8]; read-out: % bacterial viability, MRAB 12 016419 Catheter, GSH 10 mM
  viability at 10000 µM: 80.8%
[8]; read-out: % bacterial viability, MRAB 12 016419 Catheter, GSH 15 mM
  viability at 15000 µM: 49%
[8]; read-out: % bacterial viability, MRAB 12 016419 Catheter, GSH 30 mM
  viability at 30000 µM: 18.4%
[9]; GSH 10 mM
  viability at 10000 µM: 79%
[9]; GSH 15 mM
  viability at 15000 µM: 55.1%
[9]; GSH 30 mM
  viability at 30000 µM: 14.6%
[10]; E. cloacae 357768 Ear
  viability at 10000 µM: 62.8%
  viability at 15000 µM: 38.9%
  viability at 30000 µM: 0%
[10]; [16]
  viability at 10000 µM: 84.7%
  viability at 15000 µM: 74%
  viability at 30000 µM: 19.5%
